Measured values published in patent US9211238B2, “Carrier system for the transport of active substances into the skin” (priority 2010, dated 2015).

Assay: Anti-oxidative potential (AP) in vitro, test radical DPPH, ESR spectroscopy
Type: biochemical
Settings: 1% ferulic acid
Protocol: The anti-oxidative potential (AP) of all described formulations was determined in vitro. In this method the formulations were incubated with a test radical (DPPH) and afterwards the reduction of these radicals over the time was measured by ESR (electron spin resonance spectroscopy). AP=amount of free radicals/mg of tested substance*minute.

SMILES: COc1cc(/C=C/C(=O)O)ccc1O [1% ferulic acid (EtOH/water), ferulic acid]
- anti-oxidative potential (AP): AP = 723 amount of free radicals/mg of tested substance*minute
